Measured values from paper PMC12320299 (Chemical Science, 2025).

Tests used:
[1] = Histological evaluation of liver (H&E); format: in vivo, BALB/c mice; settings: 10 mg kg^−1 i.p., five consecutive days
Protocol: Liver tissue for histological assessment was fixed with formaldehyde and then paraffin-embedded. Haematoxylin and eosin (H&E) was used to stain tissue slices.
Animals. All experiments were carried out with male Balb/c mice according to the regulation of the Ethics Committee for the Care and Use of Laboratory Animals at the Medical University Vienna (BMWF-2022-0.770.291), the guidelines from the Austrian Animal Science Association and the Federation of European Laboratory Animal Science Associations (FELASA). The animals were kept in a pathogen-free conditions, controlled environment with 12 h light–dark cycle with ad libitum access to food and water. Every procedure was done in a laminar airflow […]
Treatment. CT-26 cells ([…] in 50 μL serum-free medium) were injected subcutaneously (s.c.) into the right flank of ten– to eleven-week-old male Balb/c mice. Three days after cell injection, all compounds (dissolved in 10% DMSO in water) were administered […]
1b/2b. Regarding anticancer activity experiments, mice were treated on 5 consecutive days over 2 weeks. Four hours after the last treatment 1a-treated mice were sacrificed and analysed for ruthenium levels in tissue via ICP-MS measurements. In case of the proteomic profiling […]
in water for 5 consecutive days. On the last day, 2 h after the last treatment, mice were euthanized, and blood was collected in an EDTA tube via heart punctation. […]

[2] = Reactivity by NMR with 9-ethylguanine and methionine or cysteine; format: physicochemical; settings: 1 mM, equimolar nucleophiles, D2O/20% DMSO, up to 24 h
Protocol: Nevertheless, they are activated by hydrolysis of the most labile M–O bond (Fig. 2C).[48] Further hydrolysis releases the NQ ligand, because the free hemiaminal-containing NQ is unstable and the presence of biological nucleophiles accelerated NQ release.[48] […] The samples were analysed on a 500 MHz NMR spectrometer after 0 h, 1.5 h and 24 h. […] The aromatic proton of 9-ethylguanine was consistently found at 7.6 ppm.

SMILES: CCC1=C2[O][Ru][O]C2(n2cccn2)c2ccccc2C1=O.Cc1ccc(C(C)C)cc1 (centres unmarked) [Compound 1a, [(3-ethyl-4-oxo-(pyrazolyl)-dihydronaphthalene)(cymene)ruthenium(II)]]
- liver histology (H&E) [1]: largely healthy physiology
- stability by NMR [2]: remained remarkably stable
